Consider ten compounds from PMC9415608, “Design, Synthesis and Biological Investigation of 2-Anilino Triazolopyrimidines as Tubulin Polymerization Inhibitors with Anticancer Activities” (Pharmaceuticals, 2022).

Usually IC50 stands for the concentration at which inhibition is half-maximal. One may read the melting point as the temperature of the solid-liquid transition.

Data set [1] relates to tubulin. More on the design: method as in PMID 25025853. The note with it: read-out: IC50 inhibition of tubulin polymerization; cited from earlier work.
A further data set has as its system MDA-MB-231. The experiment in a line: In vitro cell growth inhibition, resazurin viability assay. The data set is classed as cell-based, human. The following applies: Homo sapiens, MDA-MB-231; 72 h, resazurin; mean ± SE. As for the experimental part:
(§1) All the cell lines used in this paper were of human origin and purchased from the American Type Culture Collection (ATCC, Manassas, VA, USA). Colon adenocarcinoma (HT-29), non-small cell lung carcinoma (A549), cervix carcinoma (HeLa) and breast adenocarcinoma (MDA-MB-231) cells were grown in RPMI (HT29) or DMEM (A549, HeLa, MDA-MB-231) medium (Gibco, Milano, Italy). Both media were supplemented with 115 units/mL of penicillin G (Gibco, Milano, Italy), 115 μg/mL of streptomycin (Invitrogen, Milano, Italy) and 10% fetal bovine serum (Invitrogen, Milano, Italy). All cell lines were grown at 37 °C in a humidified 5% CO2 atmosphere. The cells were grown in 2 mL of complete medium.
(§2) Stock solutions were prepared for each compound by dissolving in DMSO at the final concentration of 10 mM.
(§3) The cells were seeded in 96-well plates at the appropriate density for each cell line. The respective cell line densities used for the antiproliferative assay were HeLa and HT29 5000 cells/well, A549 4000 cells/well and MDA-MB-231 7000 cells/well. The total volume of medium was 100 µL. After 24 h, the cells were treated by performing serial 5-fold dilutions of the tested compounds starting from a concentration of 10 μM. All experimental conditions were tested in triplicate for statistical analysis. After 72 h of incubation, 10 μL of 100 μg/mL resazurin solution was added to each well and the plate was re-incubated for 3–4 h. The fluorescence of the wells in each plate was monitored using a Spark 10M spectrophotometer (Tecan Group Ltd., Mannedorf, Switzerland) with a 535 nm excitation wavelength and a 600 nm emission wavelength.
(The colour change of resazurin is a common sign of viable cells or microbes.)

The test system of the next data set is HT29. Described as above. The data set is classed as cell-based, human. The following applies: Homo sapiens, HT-29; 72 h, resazurin; mean ± SE. As for the experimental part:
as §1, §2, §3

In the next data set the test system is HeLa. The description is as above. The data set is classed as cell-based, human. The following applies: Homo sapiens; 72 h, resazurin; mean ± SE. The method, then:
as §1, §2, §3

The next data set relates to A549. The data set is described as above. The following applies: Homo sapiens, A549; 72 h, resazurin; mean ± SE. The class given is cell-based, human. The method, then:
as §1, §2, §3

Data set [2] relates to Bovine brain tubulin. Description: Inhibition of [3H]colchicine binding to tubulin. The following applies: tubulin 0.5 µM, [3H]colchicine 5 µM, tested compound 5 µM. As for the experimental part:
(§4) Bovine brain tubulin was purified as described previously. To evaluate the effects of the compounds on tubulin assembly in vitro [80], varying concentrations were preincubated with 10 μM tubulin in 0.8 M monosodium glutamate (pH 6.6) at 30 °C and the reaction mixtures then cooled to 0 °C. After addition of GTP, the mixtures were transferred to 0 °C cuvettes in Beckman Coulter (Brea, CA, USA) DU-7400/DU-7500 recording spectrophotometers equipped with electronic temperature controllers and warmed to 30 °C, and the assembly of tubulin was observed turbidimetrically. […] Inhibition of colchicine binding to tubulin was measured as described before, except that the reaction mixtures contained 0.5 μM tubulin and 5 μM each of [^3H]colchicine and test compound. Only one DEAE-cellulose filter was used per sample, and filtration was by gravity.
(§5) Bovine brain tubulin (see ref. [79] for details of purification) was used to examine effects on tubulin polymerization and colchicine binding. Briefly, in the polymerization experiments, different compound concentrations were preincubated with 10 µM tubulin for 15 min at 30 °C and cooled on ice. After GTP was added to each reaction mixture, the samples were transferred to 0 °C cuvettes in recording spectrophotometers with electronic temperature controllers. The temperature was raised to 30 °C over about 30 s, and turbidity development was followed for 20 min at 350 nm. […] In the current studies, [^3H]colchicine (from American Radiolabeled Corp., St. Louis, MO) binding was measured after 10 min at 37 °C. Reaction mixtures contained 0.5 µM tubulin and 5.0 µM each of the [^3H]colchicine and the potential inhibitor, and a single DEAE-cellulose filter was used for each sample, with gravity filtration.

Data set [3] concerns Bovine brain tubulin. The experiment in a line: Inhibition of tubulin polymerization (turbidimetric assembly assay). The note with it: tubulin at 10 μM, 20 min incubation; read-out: Tubulin Assembly IC50 ± SD. The class given is biochemical. The method, then:
as §4, §5

In data set [4] the test system is MDA-MB-231, HeLa, A549 and HT-29 cancer cell lines. Description: Antiproliferative activity stated across the panel of cancer cell lines. The data set is classed as cell-based, human. The note with it: for IC50: Homo sapiens; for fold reduction in antiproliferative activity relative to 3d: range over cell lines. The method, then: as §1, §2, §3
Data set [5] has as its system panel of four cancer cell lines. The following applies: read-out: IC50 values, range; cited from earlier work.
The next data set concerns HeLa cells. The note with it: read-out: IC50 antiproliferative activity against HeLa cells; cited from earlier work.
The subject of data set [6] is tubulin. The note with it: cited from earlier work.
Data set [7] deals with tubulin. On the set-up: method as in PMID 35196595. The note with it: read-out: IC50 tubulin polymerization inhibitor; cited from earlier work.
Another data set deals with HCT-116 cancer cell line. On the set-up: method as in PMID 35196595. The following applies: read-out: IC50 antiproliferative activity against HCT-116; cited from earlier work.
In another data set the test system is cancer cell lines. The note with it: antiproliferative agent; read-out: IC50, range; cited from earlier work.
The mark [8] stands for this setting: on HeLa, A549 and HT-29 cancer cells, read-out: IC50 values, range.
[9] abbreviates: stated for the panel of cancer cell lines as a whole, read-out: IC50.

Like-named read-outs stand apart in the source and are kept apart here.

As for `COc1cc(C(=O)n2nc(Nc3ccc(C)cc3)nc2N)cc(OC)c1OC` [Compound 2a], the half-maximal inhibitory concentration (IC50) with tubulin [1] was 750 nM.
With `COc1cc(-c2ccnc3nc(Nc4ccc(C)c(C)c4)nn23)cc(OC)c1OC` [Compound 3f, N-(3,4-Dimethylphenyl)-7-(3,4,5-trimethoxyphenyl)-[1,2,4]triazolo[1,5-a]pyrimidin-2-amine], the melting point is 189 to 190 °C. Further, the concentration for half-maximal inhibition (IC50) with MDA-MB-231 is more than 10 µM. In addition, the half-maximal inhibitory concentration (IC50) in the data set with HT29 amounted to 0.16 ± 0.041 µM. For the same compound, half-maximal inhibition in the data set on HeLa (IC50) was put at 0.067 ± 0.0023 µM. The same compound gave a half-inhibitory concentration (IC50) in the data set on A549 of 0.16 ± 0.045 µM. The “Colchicine Binding % Inhibition ± SD” value with Bovine brain tubulin [2] is listed as 18 ± 5%. Also, the half-inhibitory concentration (IC50) in the data set with Bovine brain tubulin [3] came to 800 ± 100 nM. Further, the IC50 in data set [4] (setting [8]) lay within 67 to 160 nM. Also, the “fold reduction in antiproliferative activity relative to 3d” value in data set [4] is recorded as 2–5 fold.
For the compound `COc1cc(-c2ccnc3nc(NCc4ccc(C)cc4)nn23)cc(OC)c1OC` [Compound 3r, N-(4-Methylbenzyl)-7-(3,4,5-trimethoxyphenyl)-[1,2,4]triazolo[1,5-a]pyrimidin-2-amine], the melting point fell in the range of 156 to 158 °C. The same compound showed an IC50 with MDA-MB-231 of more than 10 µM. This compound also came in with an IC50 with HT29 of more than 10 µM. For the same compound, in the data set with HeLa, the IC50 was more than 10 µM. Moreover, the concentration for half-maximal inhibition (IC50) in the data set with A549 is more than 10 µM. The IC50 in [4] (setting [9]) is more than 10000 nM.
Take `COc1ccc(-c2nc3nccc(-c4cc(OC)c(OC)c(OC)c4)n3n2)cc1O` [Compound 4]: the IC50 is 3000 to 18000 nM in data set [5] and 60 nM with HeLa cells. For the same compound, in the data set with tubulin [6], the “fold greater potency than CA-4, inhibition of tubulin assembly” value is reported as 3 fold.
`COc1cc(-c2ccnc3nc(Nc4cc(C)cc(C)c4)nn23)cc(OC)c1OC` [Compound 3g, N-(3,5-Dimethylphenyl)-7-(3,4,5-trimethoxyphenyl)-[1,2,4]triazolo[1,5-a]pyrimidin-2-amine] registered a melting point of 228 to 230 °C. Further, the IC50 in the data set with MDA-MB-231 is more than 10 µM. This compound also returned an IC50 in the data set with HT29 of more than 10 µM. The same compound displayed a half-maximal inhibitory concentration (IC50) in the data set on HeLa of more than 10 µM. In the data set on A549, this compound yielded a half-inhibitory concentration (IC50) of more than 10 µM. Moreover, the half-inhibitory concentration (IC50) in data set [4] (setting [9]) is more than 10000 nM.
In the case of `COc1cc(-c2cc(-c3ccc(Cl)cc3)nc3nc(N)nn23)cc(OC)c1OC` [Compound 5], the half-inhibitory concentration (IC50) in the data set with tubulin [7] is 3840 nM; in the data set with HCT-116 cancer cell line it was 530 nM.
`CCc1ccc(Nc2nc3nccc(-c4cc(OC)c(OC)c(OC)c4)n3n2)cc1` [Compound 3h, N-(4-Ethylphenyl)-7-(3,4,5-trimethoxyphenyl)-[1,2,4]triazolo[1,5-a]pyrimidin-2-amine]: the melting point lay in the range of 199 to 200 °C. For the same compound, in the data set with MDA-MB-231, the half-inhibitory concentration (IC50) was more than 10 µM. This compound yielded an IC50 in the data set on HT29 of 0.16 ± 0.033 µM. In addition, the half-maximal inhibitory concentration (IC50) in the data set with HeLa amounted to 0.24 ± 0.074 µM. The same compound displayed a half-inhibitory concentration (IC50) in the data set with A549 of 0.2 ± 0.044 µM. Also, the “Colchicine Binding % Inhibition ± SD” value with Bovine brain tubulin [2] came to 21 ± 0.9%. Besides, the half-maximal inhibitory concentration (IC50) in the data set with Bovine brain tubulin [3] came out at 1900 ± 200 nM. Moreover, in data set [4] (setting [8]), the IC50 lay within 160 to 240 nM. The “fold reduction in antiproliferative activity relative to 3d” value in data set [4] is on record as 5–7 fold.
Turning to `COc1cccc(Nc2nc3nccc(-c4cc(OC)c(OC)c(OC)c4)n3n2)c1` [Compound 3l, N-(3-Methoxyphenyl)-7-(3,4,5-trimethoxyphenyl)-[1,2,4]triazolo[1,5-a]pyrimidin-2-amine], the melting point lay in the range of 165 to 166 °C. For the same compound, in the data set with MDA-MB-231, the IC50 stood at 1.76 ± 0.9 µM. The IC50 in the data set on HT29 is 0.76 ± 0.18 µM. This compound also showed an IC50 in the data set on HeLa of 0.44 ± 0.08 µM. For the same compound, the midpoint of inhibition in the data set with A549, the IC50, lay at 0.76 ± 0.18 µM. Besides, in the data set with Bovine brain tubulin [2], the “Colchicine Binding % Inhibition ± SD” value is 39 ± 5%. Moreover, in the data set with Bovine brain tubulin [3], the IC50 was determined as 2200 ± 200 nM.
Consider `COc1cc(Nc2cc(C)nc3nc(Nc4ccc(C)cc4)nn23)cc(OC)c1OC` [5-methyl-2-(p-toluidino)-7-(3′,4′,5′-trimethoxyanilino)-[1,2,4]triazolo[1,5-a]pyrimidine], for which the 50% inhibitory concentration (IC50) in the data set on cancer cell lines is 520 to 1550 nM.
With `COc1ccc(/C=C\c2cc(OC)c(OC)c(OC)c2)cc1O` [CA-4, combretastatin A-4, reference compound], the IC50 in the data set with MDA-MB-231 was 0.005 ± 0.002 µM; with HeLa, 0.004 ± 0.001 µM; with Bovine brain tubulin [3], […]; in data set [4] (against MDA-MB-231 and HeLa cancer cell lines, read-out: IC50, range) it was 4 to 5 nM. The “Colchicine Binding % Inhibition ± SD” value in the data set with Bovine brain tubulin [2] amounted to 98 ± 2%.
